Test results as given in patent publication US20090062375A1, “METHODS AND COMPOSITIONS FOR THE TREATMENT OF VIRAL DISEASES” (priority 2005, published 2009).

Key:
[1] = test system: MMP-9 secretion by DV-infected iDC; assay: Gelatin zymography of gelatinase (MMP-9) secretion by DV-infected iDC; format: cell-based, human; conditions: 10 μM SB203580 pretreatment, DV exposure 16 hr, zymography (FIG. 5C)
Description: FIG. 5. Immature DC (A-C) or HUVEC (D-F) were infected or not with DV and cells were collected 30 min post infection. Cells lysate were separated on 12.5% SDS-PAGE under reducing conditions. Proteins were electrophoretically transferred onto nitrocellulose membrane. The membrane was probed with (A and E) antibodies to total and to specific phosphorylated forms of ERK1/ERK2 antibodies to total and (B, D) to specific phosphorylated forms of p38 kinase. Horseradish peroxidase-conjugated goat anti-rabbit IgG was used as secondary antibody. Immature DC (C) or HUVEC (F) were pretreated or not with 10 μM SB 203580 prior to exposure with DV for 16 hr at 37° C. Supernatants were collected, lyophilized and assayed by zymography. Data are representative of 3 independent experiments.
Immature dendritic cells 5×10^5 cells/well were exposed to DV2-16681 for 2 hr, at MOI of 1 pfu/cell, in serum free RPMI 1640. Five extensive washes were done to eliminate free virus. […] Supernatants of DV infected iDC were collected and assessed for their viral activity. […]
DV infected iDC (5×10^5 cells) were cultured and collected in several time periods. Gelatinase secretion of cell supernatants was determined by sodium dodecyl sulfate-polyacrylamide gel electrophoresis (SDS-PAGE) zymography by using a gelatin substrate, as previously described (Missé´et al., 2001). […]

HUVEC monolayers = assay: HUVEC monolayer permeability assay (FITC-dextran, Transwell); format: cell-based, human; conditions: concentration not stated
Description: FIG. 6. Supernatant of DEN-V2 infected-iDC increase endothelial cell permeability in a MMP dependent fashion. Eighty percent confluent HUVEC were prepared on 24-well transwell polyethylene. (A) Either cell culture supernatants of uninfected iDC, DV-infected iDC, or recombinant TNF-α (20 ng/ml) were pre-treated or not with 20 nM SB-3CT for 24 hours before HUVEC exposure for 12 hours, HUVEC monolayer permeability was measured by using the FITC-Dextran detected with spectrofluorometer at an excitation wavelength of 485 nm and emission at 530 nm. […] Data are representative of 3 or 4 independent experiments.
FIG. 7. Supernatant of DEN-V2 infected-HUVEC increase endothelial cell permeability in a MMP-dependent fashion. IL-8 or TNF-α were used as controls. The induced permeability was inhibited as in experiment of FIG. 6 by SB-3CT.
Immature dendritic cells were cultured for 24 hr in serum-free RPMI 1640 conditioned medium. And then infected with DV, cells and supernatant were collected at different periods. […]
Permeability of HUVEC monolayers cultured on Transwell filters was assessed using FITC-labelled dextrans. […] The cells were removed and the absorbance of the FITC-dextran in the chamber was measured by spectrofluorometer (GENios-TECAN, Trappes, France) at an excitation wavelength of 485 nm and emission of 530 nm.

C[S+]([O-])c1ccc(-c2nc(-c3ccc(F)cc3)c(-c3ccncc3)[nH]2)cc1 (centres unmarked) [SB203580, 4-(4-Fluorophenyl)-2-(4-methylsulfinylphenyl)-5-(4-pyridyl)1H-imidazole]
increase in MMP-9 secretion by DV-infected iDC [1]: totally abolished
permeability of HUVEC increased by dengue virus-infected iDC supernatants (summary statement) (HUVEC monolayers): inhibited
